Results: ChEMBL document CHEMBL3044796, “Design, synthesis, and biologic evaluation of some novel N-arylpyrazole derivatives as cytotoxic agents” (Med Chem Res, 2013)

Experiments:
[1] = system: KB; experiment: Cytotoxicity against human KB after 48 hrs by MTT assay; format: functional, cell-based
[2] = system: HL-60; experiment: Cytotoxicity against human HL60 after 48 hrs by MTT assay; format: functional, cell-based; conditions: HL-60, 48 h
[3] = system: BGC-823; experiment: Cytotoxicity against human BGC823 after 48 hrs by MTT assay; format: functional, cell-based; conditions: BGC-823, 48 h
[4] = system: Bel-7402; experiment: Ratio of cisplatin IC50 to compound IC50 for human Bel7402 cells; format: functional
[5] = system: Bel-7402; experiment: Cytotoxicity against human Bel7402 after 48 hrs by MTT assay; format: functional, cell-based; conditions: Bel-7402, 48 h

## CCCCCCCCOc1cc(-c2c(C)nn(-c3ccc([N+](=O)[O-])cc3)c2C)cc(-c2c(C)nn(-c3ccc([N+](=O)[O-])cc3)c2C)c1
[1]
  IC50: 6.31 µM
[2]
  IC50: 7.91 µM
[3]
  IC50: 8.4 µM
[4]
  Ratio IC50: 1.5
[5]
  IC50: 5.22 µM

## Cc1nn(-c2ccc([N+](=O)[O-])cc2)c(C)c1-c1cccc(-c2c(C)nn(-c3ccc([N+](=O)[O-])cc3)c2C)c1
[1]
  IC50: 10.1 µM
[2]
  IC50: 10.6 µM
[3]
  IC50: 11.9 µM
[5]
  IC50: 11.8 µM

## O=[N+]([O-])c1ccc(-n2cc(-c3ccncc3)cn2)cc1
[1]
  IC50: 19.2 µM
[2]
  IC50: 17.8 µM
[3]
  IC50: 20.8 µM
[5]
  IC50: 23.2 µM

## Cc1nn(-c2ccc([N+](=O)[O-])cc2)c(C)c1-c1ccccc1-c1c(C)nn(-c2ccc([N+](=O)[O-])cc2)c1C
[1]
  IC50: 25.6 µM
[2]
  IC50: 16.2 µM
[3]
  IC50: 25.4 µM
[5]
  IC50: 19.9 µM

## O=[N+]([O-])c1ccc(-c2cnn(-c3ccc([N+](=O)[O-])cc3)c2)cc1
[1]
  IC50: 8.4 µM
[2]
  IC50: 8.78 µM
[3]
  IC50: 11.9 µM
[5]
  IC50: 9.48 µM

## O=[N+]([O-])c1ccc(-n2cc(-c3ccc(C(F)(F)F)cc3)cn2)cc1
[1]
  IC50: 21.3 µM
[2]
  IC50: 17.3 µM
[3]
  IC50: 13.8 µM
[5]
  IC50: 7.15 µM

## O=[N+]([O-])c1ccc(-n2cc(-c3cc(C(F)(F)F)cc(C(F)(F)F)c3)cn2)cc1
[1]
  IC50: 12 µM
[2]
  IC50: 11.4 µM
[3]
  IC50: 18.5 µM
[5]
  IC50: 7.39 µM
